Read-outs that look alike come from different tables or passages of the source.
Legend:
[1] = biological target: T1, human OX1 receptor (Homo sapiens, UniProt O43613); experiment: Measurement of orexin receptor antagonistic activity (calcium fluorescence, FLIPRtetra); format: cell-based; settings: CHO, read-out: Human Orexin1 receptor inhibition (at 10 μM)
T1 construct: expressed in transfected cells; host or cells: CHO cells
T1 sequence (O43613 1-425): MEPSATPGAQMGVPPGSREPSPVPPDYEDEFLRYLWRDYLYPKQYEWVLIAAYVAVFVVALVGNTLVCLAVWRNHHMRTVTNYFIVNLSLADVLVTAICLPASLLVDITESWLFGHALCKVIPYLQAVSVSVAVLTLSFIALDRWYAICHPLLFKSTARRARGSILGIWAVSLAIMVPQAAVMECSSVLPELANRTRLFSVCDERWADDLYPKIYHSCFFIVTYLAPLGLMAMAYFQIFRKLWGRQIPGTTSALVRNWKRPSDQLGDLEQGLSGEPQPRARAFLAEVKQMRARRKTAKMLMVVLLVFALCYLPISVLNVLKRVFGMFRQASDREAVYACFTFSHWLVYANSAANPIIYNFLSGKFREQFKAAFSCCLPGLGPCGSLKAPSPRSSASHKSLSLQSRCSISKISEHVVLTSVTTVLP
Protocol: (§1) Measurement of Orexin Receptor Antagonistic Activity
(§2) CHO cells forcibly expressing human OX1 receptor or human OX2 receptor were seeded in each well of 384 well black transparent bottom plate (BD Falcon) at 7,500 cells/well, and cultured for one day in a 5% CO2 incubator at 37° C. […] The plate was stood for 30 min in a 5% CO2 incubator at 37° C., and further stood at room temperature for 30 min. A test compound prepared by diluting with assay buffer B (HBSS, 20 mM HEPES, 0.1% BSA) was added at 10 μL/well, and then OX-A (OX1 receptor, final concentration; 1 nM) or OX-A (OX2 receptor, final concentration; 0.3 nM) was added at 10 μL/well, and the fluorescence value was measured by FLIPRtetra (Molecular Devices) every one sec for 2 min.

[2] = biological target: T2, human OX2 receptor (Homo sapiens, UniProt O43614); experiment: as above; format: cell-based; settings: CHO, read-out: Human Orexin2 receptor inhibition (at 10 μM)
T2 construct: expressed in transfected cells; host or cells: CHO cells
T2 sequence (O43614 1-444): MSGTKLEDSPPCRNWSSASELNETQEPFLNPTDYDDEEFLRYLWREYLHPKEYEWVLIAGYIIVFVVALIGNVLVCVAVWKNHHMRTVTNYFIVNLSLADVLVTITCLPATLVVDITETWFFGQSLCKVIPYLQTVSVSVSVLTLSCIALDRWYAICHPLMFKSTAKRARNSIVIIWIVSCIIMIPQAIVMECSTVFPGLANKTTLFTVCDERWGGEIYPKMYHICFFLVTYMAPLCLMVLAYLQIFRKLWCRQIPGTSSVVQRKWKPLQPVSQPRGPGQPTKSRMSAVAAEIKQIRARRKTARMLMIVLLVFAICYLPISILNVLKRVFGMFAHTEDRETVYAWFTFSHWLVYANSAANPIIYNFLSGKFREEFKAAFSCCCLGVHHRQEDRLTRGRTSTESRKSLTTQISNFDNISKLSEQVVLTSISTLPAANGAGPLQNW
Protocol: as §1, §2

[3] = 10 μM test compound, CHO cells expressing human OX1 receptor, OX-A 1 nM
[4] = 10 μM test compound, CHO cells expressing human OX2 receptor, OX-A 0.3 nM

**Q.** Which inhibition at 10 µM [1] does the source give for `Cc1cc(C)nc(N2CCN(C(=O)c3ccccc3C)CCO2)n1` [Example 57, (2-(4,6-dimethylpyrimidin-2-yl)-1,2,5-oxadiazepan-5-yl) (2-methylphenyl)methanone] here?
**A.** 10%

**Q.** What about the inhibition at 10 µM [2] of the same compound?
**A.** 58%

**Q.** How did the inhibition at 10 µM [1] turn out when `COc1ccc(Cl)cc1C(=O)N1CCON(c2nc(C)cc(C)n2)CC1` [Example 58, (5-chloro-2-methoxyphenyl) (2-(4,6-dimethylpyrimidin-2-yl)-1,2,5-oxadiazepan-5-yl)methanone] was run?
**A.** 29%

**Q.** And the inhibition at 10 µM [2]?
**A.** 99%

**Q.** With `Cc1cc(C)nc(N2CCN(C(=O)c3ccc(Cl)cc3Cl)CCO2)n1` [Example 59, (2,4-dichlorophenyl) (2-(4,6-dimethylpyrimidin-2-yl)-1,2,5-oxadiazepan-5-yl)methanone] as the compound, how does the inhibition at 10 µM [1] read?
**A.** 1%

**Q.** And the inhibition at 10 µM [2]?
**A.** 65%

**Q.** What does the source list for `COc1cccc(C(=O)N2CCON(c3nc(C)cc(C)n3)CC2)c1Cl` [Example 60, (2-chloro-3-methoxyphenyl) (2-(4,6-dimethylpyrimidin-2-yl)-1,2,5-oxadiazepan-5-yl)methanone]?
**A.** inhibition at 10 µM [1]: -1%; inhibition at 10 µM [2]: 3%

**Q.** How did the inhibition at 10 µM [1, 3] turn out when `CCOc1ccccc1C(=O)N1CCON(c2nc(C)cc(C)n2)CC1` [Example 61, (2-(4,6-dimethylpyrimidin-2-yl)-1,2,5-oxadiazepan-5-yl) (2-ethoxyphenyl)methanone] was run?
**A.** 22%

**Q.** What about the inhibition at 10 µM [2, 4] of the same compound?
**A.** 94%

**Q.** With `Cc1cc(C)nc(N2CCN(C(=O)c3ccccc3C(F)(F)F)CCO2)n1` [Example 62] as the compound, how does the inhibition at 10 µM [1, 3] read?
**A.** 2%

**Q.** What about the inhibition at 10 µM [2, 4] of the same compound?
**A.** 72%

**Q.** `COc1c(C#N)cccc1C(=O)N1CCON(c2nc(C)cc(C)n2)CC1` [Example 63, 3-((2-(4,6-dimethylpyrimidin-2-yl)-1,2,5-oxadiazepan-5-yl)carbonyl)-2-methoxybenzonitrile] was tested. Which inhibition at 10 µM [1] did it give?
**A.** 11%

**Q.** What about the inhibition at 10 µM [2] of the same compound?
**A.** 49%

**Q.** Which inhibition at 10 µM [1, 3] does the source give for `Cc1cc(C)nc(N2CCN(C(=O)c3cccc4ccccc34)CCO2)n1` [Example 64, (2-(4,6-dimethylpyrimidin-2-yl)-1,2,5-oxadiazepan-5-yl) (1-naphthyl)methanone] here?
**A.** 76%

**Q.** And the inhibition at 10 µM [2, 4]?
**A.** 101%

**Q.** How did the inhibition at 10 µM [1] turn out when `Cc1cc(C)nc(N2CCN(C(=O)c3cccc4ncccc34)CCO2)n1` [Example 65, (2-(4,6-dimethylpyrimidin-2-yl)-1,2,5-oxadiazepan-5-yl) (quinolin-5-yl)methanone] was run?
**A.** 9%

**Q.** What about the inhibition at 10 µM [2] of the same compound?
**A.** 84%

**Q.** `Cc1cc(C)nc(N2CCN(C(=O)c3cccc4cccnc34)CCO2)n1` [Example 66, (2-(4,6-dimethylpyrimidin-2-yl)-1,2,5-oxadiazepan-5-yl) (quinolin-8-yl)methanone] was tested. Which inhibition at 10 µM [1, 3] did it give?
**A.** 13%

**Q.** And the inhibition at 10 µM [2, 4]?
**A.** 90%

**Q.** What does the source list for `Cc1cc(C)nc(N2CCN(C(=O)c3cccc4nccnc34)CCO2)n1` [Example 67, (2-(4,6-dimethylpyrimidin-2-yl)-1,2,5-oxadiazepan-5-yl) (quinoxalin-5-yl)methanone]?
**A.** inhibition at 10 µM [1]: 5%; inhibition at 10 µM [2]: 44%

**Q.** Which results are given for `Cc1cc(C)nc(N2CCN(C(=O)c3cccc4ncc(C)nc34)CCO2)n1` [Example 68, (2-(4,6-dimethylpyrimidin-2-yl)-1,2,5-oxadiazepan-5-yl) (3-methylquinoxalin-5-yl)methanone]?
**A.** inhibition at 10 µM [1]: 28%; inhibition at 10 µM [2]: 87%

**Q.** Which inhibition at 10 µM [1] does the source give for `Cc1cc(C)nc(N2CCN(C(=O)c3cccc4nn(C)cc34)CCO2)n1` [Example 69, (2-(4,6-dimethylpyrimidin-2-yl)-1,2,5-oxadiazepan-5-yl) (2-methyl-2H-indazol-4-yl) methanone] here?
**A.** 3%

**Q.** What about the inhibition at 10 µM [2] of the same compound?
**A.** 45%

**Q.** With `Cc1cc(C)nc(N2CCN(C(=O)c3cccc4nc(C)oc34)CCO2)n1` [Example 70, (2-(4,6-dimethylpyrimidin-2-yl)-1,2,5-oxadiazepan-5-yl) (2-methyl-1,3-benzoxazol-7-yl)methanone] as the compound, how does the inhibition at 10 µM [1] read?
**A.** -6%

**Q.** What about the inhibition at 10 µM [2] of the same compound?
**A.** 17%

**Q.** With `Cc1cc(C)nc(N2CCN(C(=O)c3cccc4ccn(C)c34)CCO2)n1` [Example 71, (2-(4,6-dimethylpyrimidin-2-yl)-1,2,5-oxadiazepan-5-yl) (1-methyl-1H-indol-7-yl) methanone] as the compound, how does the inhibition at 10 µM [1] read?
**A.** 53%

**Q.** And the inhibition at 10 µM [2]?
**A.** 99%

**Q.** Which inhibition at 10 µM [1, 3] does the source give for `Cc1cc(C)nc(N2CCN(C(=O)c3cccc4c3ccn4C)CCO2)n1` [Example 72, (2-(4,6-dimethylpyrimidin-2-yl)-1,2,5-oxadiazepan-5-yl) (1-methyl-1H-indol-4-yl) methanone] here?
**A.** 34%

**Q.** And the inhibition at 10 µM [2, 4]?
**A.** 94%

**Q.** For `Cc1cc(C)nc(N2CCN(C(=O)c3cccc4nsnc34)CCO2)n1` [Example 73, 2,1,3-benzothiadiazol-4-yl (2-(4,6-dimethylpyrimidin-2-yl)-1,2,5-oxadiazepan-5-yl)methanone], which inhibition at 10 µM [1] is on record?
**A.** 13%

**Q.** What about the inhibition at 10 µM [2] of the same compound?
**A.** 42%

**Q.** What does the source list for `Cc1cc(C)nc(N2CCN(C(=O)c3cccc4c3OCC4)CCO2)n1` [Example 74, 2,3-dihydro-1-benzofuran-7-yl (2-(4,6-dimethylpyrimidin-2-yl)-1,2,5-oxadiazepan-5-yl)methanone]?
**A.** inhibition at 10 µM [1, 3]: 10%; inhibition at 10 µM [2, 4]: 57%

**Q.** Which results are given for `Cc1cc(C)nc(N2CCN(C(=O)c3cccc4c3OC(C)(C)C4)CCO2)n1` [Example 75, (2,2-dimethyl-2,3-dihydro-1-benzofuran-7-yl) (2-(4,6-dimethylpyrimidin-2-yl)-1,2,5-oxadiazepan-5-yl)methanone]?
**A.** inhibition at 10 µM [1]: 10%; inhibition at 10 µM [2]: 75%

**Q.** `Cc1cc(C)nc(N2CCN(C(=O)c3cccc4c3C(=O)N(C)C4)CCO2)n1` [Example 76, 7-((2-(4,6-dimethylpyrimidin-2-yl)-1,2,5-oxadiazepan-5-yl)carbonyl)-2-methylisoindolin-1-one] was tested. Which inhibition at 10 µM [1] did it give?
**A.** 6%

**Q.** And the inhibition at 10 µM [2]?
**A.** 22%

**Q.** Which results are given for `COc1cc2c(cc1C(=O)N1CCON(c3nc(C)cc(C)n3)CC1)CCC2` [Example 77, (2-(4,6-dimethylpyrimidin-2-yl)-1,2,5-oxadiazepan-5-yl) (6-methoxy-2,3-dihydro-1H-inden-5-yl)methanone]?
**A.** inhibition at 10 µM [1]: 12%; inhibition at 10 µM [2]: 69%

**Q.** For `Cc1cc(C)nc(N2CCN(C(=O)c3cccc(-c4ccccc4)c3)CCO2)n1` [Example 78, biphenyl-3-yl (2-(4,6-dimethylpyrimidin-2-yl)-1,2,5-oxadiazepan-5-yl)methanone], which inhibition at 10 µM [1, 3] is on record?
**A.** 27%

**Q.** And the inhibition at 10 µM [2, 4]?
**A.** 52%

**Q.** How did the inhibition at 10 µM [1, 3] turn out when `Cc1cc(C)nc(N2CCN(C(=O)c3ccccc3-c3ccccc3)CCO2)n1` [Example 79, biphenyl-2-yl (2-(4,6-dimethylpyrimidin-2-yl)-1,2,5-oxadiazepan-5-yl)methanone] was run?
**A.** 57%

**Q.** What about the inhibition at 10 µM [2, 4] of the same compound?
**A.** 98%

**Q.** For `Cc1cc(C)nc(N2CCN(C(=O)c3ccccc3-n3cccc3)CCO2)n1` [Example 80, (2-(4,6-dimethylpyrimidin-2-yl)-1,2,5-oxadiazepan-5-yl) (2-(1H-pyrrol-1-yl)phenyl)methanone], which inhibition at 10 µM [1] is on record?
**A.** 14%

**Q.** What about the inhibition at 10 µM [2] of the same compound?
**A.** 94%

**Q.** With `Cc1cc(C)nc(N2CCN(C(=O)c3ccccc3-c3ccco3)CCO2)n1` [Example 81, (2-(4,6-dimethylpyrimidin-2-yl)-1,2,5-oxadiazepan-5-yl) (2-(2-furyl)phenyl)methanone] as the compound, how does the inhibition at 10 µM [1, 3] read?
**A.** 85%

**Q.** And the inhibition at 10 µM [2, 4]?
**A.** 99%

**Q.** How did the inhibition at 10 µM [1, 3] turn out when `Cc1cc(C)nc(N2CCN(C(=O)c3ccccc3-c3ncc[nH]3)CCO2)n1` [Example 82, (2-(4,6-dimethylpyrimidin-2-yl)-1,2,5-oxadiazepan-5-yl) (2-(1H-imidazol-2-yl)phenyl)methanone] was run?
**A.** 18%

**Q.** What about the inhibition at 10 µM [2, 4] of the same compound?
**A.** 83%

**Q.** `Cc1cc(C)nc(N2CCN(C(=O)c3cc(C#N)ccc3C)CCO2)n1` [Example 83, 3-((2-(4,6-dimethylpyrimidin-2-yl)-1,2,5-oxadiazepan-5-yl)carbonyl)-4-methylbenzonitrile] was tested. Which inhibition at 10 µM [1] did it give?
**A.** 7%

**Q.** And the inhibition at 10 µM [2]?
**A.** 24%

**Q.** Which results are given for `Cc1cc(N2CCN(C(=O)c3ccccc3-c3nccs3)C[C@H](C)O2)nc(C)n1` [Example 84, ((7S)-2-(2,6-dimethylpyrimidin-4-yl)-7-methyl-1,2,5-oxadiazepan-5-yl)(2-(1,3-thiazol-2-yl)phenyl)methanone]?
**A.** inhibition at 10 µM [1, 3]: 100%; inhibition at 10 µM [2, 4]: 98%
